Laboratory results as given in publication PMC6917776, “Discovery of a chemical probe for PRDM9” (Nature Communications, 2019).
Values joined by “and” are separate entries in the source; they are usually repeats but may differ in a detail not shown here. Equal entries are not always repeated.

Key:
PRDM9 [1] = target: T1, PRDM9 (Homo sapiens, UniProt Q9NQV7); assay: DSF thermal stabilisation, PRDM selectivity and titration; assay type: binding
Experimental: DSF measurements were performed as previously described[21] using a Light Cycler 480 II instrument from Roche Applied Science. […] Sypro Orange was purchased from Invitrogen as a 5000 × stock solution (concentration not specified by vendor) and was diluted 1:1000 to yield a 5 × working concentration. The temperature scan curves were fitted to a Boltzmann sigmoid function, and the Tm values were obtained from the midpoint of the transition.

PRDM12 = PRDM12 (Homo sapiens, UniProt Q9H4Q4); assay: DSF thermal stabilisation, PRDM selectivity; assay type: binding; conditions: 250 µM MRK-740; 2 mM SAM
Experimental: (§1) DSF measurements were performed as previously described[21] using a Light Cycler 480 II instrument from Roche Applied Science. All proteins tested in these selectivity experiments were used at final concentration of 0.02 mg mL^−1 in a 0.1 M HEPES, pH 7.5 and 150 mM NaCl buffer in the presence of 2 mM SAM. Sypro Orange was purchased from Invitrogen as a 5000 × stock solution (concentration not specified by vendor) and was diluted 1:1000 to yield a 5 × working concentration. The temperature scan curves were fitted to a Boltzmann sigmoid function, and the Tm values were obtained from the midpoint of the transition.

PRDM6 = PRDM6 (Homo sapiens, UniProt Q9NQX0); assay: DSF thermal stabilisation, PRDM selectivity; assay type: binding; conditions: 250 µM MRK-740; 2 mM SAM
Experimental: as §1

PRDM9 [2] = target: T1, PRDM9; assay: PRDM9 cellular assay: H3K4me3 of endogenous histone H3 in HEK293T cells (western blot); assay type: cell-based; conditions: 20 h, technical replicates
Experimental: (§2) HEK293T (kind gift from Sam Benchimol, York University), or MCF7 (ATCC® HTB-22™), cells were plated (12 well plates) and next day co-transfected with 0.1 (HEK293T) or 0.2 (MCF7) µg of GFP-tagged histone H3 and with 0.1 (HEK293T) or 0.2 (MCF7) µg of Flag-tagged PRDM9/PRDM9 catalytic mutant (Y357S) and 0.8 or 0.6 µg of empty vector using JetPRIME® transfection reagent, following manufacturer instructions. After 4 h media was removed and cells were treated with compounds for 20 h. Next day, cells were lysed in lysis buffer (20 mM Tris-HCl pH 8, 150 mM NaCl, 1 mM EDTA, 10 mM MgCl2, 0.5% TritonX-100, 12.5 U mL^−1 benzonase (Sigma), complete EDTA-free protease inhibitor cocktail (Roche)). After 2 min incubation at RT, SDS was added to final 1% concentration. Cell lysates were analyzed in western blot for GFP and H3K4me3 levels. All cell lines were mycoplasma negative, as determined by MycoAlert™ Mycoplasma Detection Kit (Lonza).
(§3) Total cell lysates were resolved in 4–12% Bis-Tris Protein Gels (Invitrogen) and transferred in for 1.5 h (80 V) onto PVDF membrane (Millipore) in Tris-Glycine transfer buffer containing 20% MeOH and 0.05% SDS. Blots were blocked for 1 h in blocking buffer (5% milk in PBS) and incubated with primary antibodies anti-GFP (1:3000, Clontech # 632381), anti-H3K4me3 (1:1000, Millipore, #04-745), anti-histone H3 (1:2000, #ab10799, Abcam), anti-Flag (1:5000, #F4799, Sigma) in blocking buffer (5% BSA in 0.1% Tween 20 PBS) overnight at 4 °C. After five washes with 0.1% Tween 20 PBS the blots were incubated with goat-anti rabbit (IR800) and donkey anti-mouse (IR 680) antibodies (1:5000) in Odyssey Blocking Buffer (LiCor) for 1 h at RT and washed five times with 0.1% Tween 20 PBS. The signal was read on an Odyssey scanner (LiCor) at 800 nm and 700 nm and analyzed with Image Studio Ver.5.2 software. […]
endogenous histone H3. (a) Western blot analysis of cellular lysates prepared from HEK293T cells transfected with PRDM9-FLAG and treated with the indicated concentration of compound for 20 h. Mut denotes PRDM9 catalytic mutant (Y357S). (b) Non-linear fit of H3K4me3 fluorescence intensities normalized to intensities of histone H3 is shown. The results are MEAN +/- SEM of n=3 (technical replicates). Source data are provided as a Source Data file .
(§4) (1 picture or pasted object on this page, not shown here)

PRDM9 [3] = target: T1, PRDM9; assay: PRDM9 cellular assay: H3K4me3 of exogenous H3-GFP in MCF7 cells (western blot); assay type: cell-based; conditions: for H3K4me3/GFP - western blot: MCF7, 20 h, replicates
Experimental: as §2, §3
exogenous histone H3 in MCF7 cells. […]
dependent K4 trimethylation of exogenous histone H3 in MCF7 cells. Cells were co-transfected with H3-GFP and PRDM9-FLAG and treated with compounds at indicated concentrations for 20 h. (b) The graph represents non-linear fit of H3K4me3 fluorescence intensities normalized to intensities of GFP. The results are from two independent experiments (n=2). Source data are provided as a Source Data file.
as §4

[4] = MRK-740 0.244141 uM, in the absence of SAM
[5] = MRK-740 0.244141 uM, in the presence of 2 mM of SAM
[6] = MRK-740 0.488281 uM, in the absence of SAM
[7] = MRK-740 0.488281 uM, in the presence of 2 mM of SAM
[8] = MRK-740 0.976563 uM, in the absence of SAM
[9] = MRK-740 0.976563 uM, in the presence of 2 mM of SAM
[10] = MRK-740 1.95312 uM, in the absence of SAM
[11] = MRK-740 1.95312 uM, in the presence of 2 mM of SAM
[12] = MRK-740 3.90625 uM, in the absence of SAM
[13] = MRK-740 3.90625 uM, in the presence of 2 mM of SAM
[14] = MRK-740 7.8125 uM, in the absence of SAM
[15] = MRK-740 7.8125 uM, in the presence of 2 mM of SAM
[16] = MRK-740 15.625 uM, in the absence of SAM
[17] = MRK-740 15.625 uM, in the presence of 2 mM of SAM
[18] = MRK-740 31.25 uM, in the absence of SAM
[19] = MRK-740 31.25 uM, in the presence of 2 mM of SAM
[20] = MRK-740 62.5 uM, in the absence of SAM
[21] = MRK-740 62.5 uM, in the presence of 2 mM of SAM
[22] = MRK-740 125 uM, in the absence of SAM
[23] = MRK-740 125 uM, in the presence of 2 mM of SAM
[24] = MRK-740 250 uM, in the absence of SAM
[25] = MRK-740 250 uM, in the presence of 2 mM of SAM
[26] = MRK-740 500 uM, in the absence of SAM
[27] = MRK-740 500 uM, in the presence of 2 mM of SAM

T1 sequence (Q9NQV7 whole entry): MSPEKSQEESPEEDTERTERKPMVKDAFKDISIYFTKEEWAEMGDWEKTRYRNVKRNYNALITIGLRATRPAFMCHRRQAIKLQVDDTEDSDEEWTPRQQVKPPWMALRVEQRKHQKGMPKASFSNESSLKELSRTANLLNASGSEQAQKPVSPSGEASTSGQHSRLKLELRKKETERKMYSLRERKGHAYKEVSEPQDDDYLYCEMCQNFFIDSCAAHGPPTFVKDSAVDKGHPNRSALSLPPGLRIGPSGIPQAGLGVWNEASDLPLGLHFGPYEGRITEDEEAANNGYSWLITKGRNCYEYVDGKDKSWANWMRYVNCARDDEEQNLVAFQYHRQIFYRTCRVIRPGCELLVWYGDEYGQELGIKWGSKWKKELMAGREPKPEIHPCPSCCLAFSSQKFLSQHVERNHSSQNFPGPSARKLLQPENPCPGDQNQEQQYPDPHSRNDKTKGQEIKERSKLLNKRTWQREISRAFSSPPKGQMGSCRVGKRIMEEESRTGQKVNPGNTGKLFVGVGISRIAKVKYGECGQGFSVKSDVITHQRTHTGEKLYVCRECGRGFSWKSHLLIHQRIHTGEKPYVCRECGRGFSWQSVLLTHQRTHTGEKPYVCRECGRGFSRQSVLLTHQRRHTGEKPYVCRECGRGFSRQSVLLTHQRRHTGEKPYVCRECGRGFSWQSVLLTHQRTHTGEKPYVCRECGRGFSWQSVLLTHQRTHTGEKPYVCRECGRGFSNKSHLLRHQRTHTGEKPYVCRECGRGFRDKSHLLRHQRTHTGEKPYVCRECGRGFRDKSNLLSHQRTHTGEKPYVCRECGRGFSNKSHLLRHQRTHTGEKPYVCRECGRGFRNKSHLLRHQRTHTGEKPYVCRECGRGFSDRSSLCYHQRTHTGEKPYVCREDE
PRDM12, sequence (Q9H4Q4 whole entry): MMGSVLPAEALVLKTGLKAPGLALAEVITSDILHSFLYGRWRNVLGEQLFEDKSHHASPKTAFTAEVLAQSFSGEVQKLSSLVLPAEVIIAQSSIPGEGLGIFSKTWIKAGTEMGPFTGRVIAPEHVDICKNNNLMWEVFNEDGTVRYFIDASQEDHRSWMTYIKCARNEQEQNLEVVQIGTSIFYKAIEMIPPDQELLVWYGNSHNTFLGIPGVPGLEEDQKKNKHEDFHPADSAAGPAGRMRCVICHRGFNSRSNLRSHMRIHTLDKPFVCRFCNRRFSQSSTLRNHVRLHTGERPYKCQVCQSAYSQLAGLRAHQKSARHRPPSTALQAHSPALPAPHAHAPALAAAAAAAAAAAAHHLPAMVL
PRDM6, sequence (Q9NQX0 whole entry): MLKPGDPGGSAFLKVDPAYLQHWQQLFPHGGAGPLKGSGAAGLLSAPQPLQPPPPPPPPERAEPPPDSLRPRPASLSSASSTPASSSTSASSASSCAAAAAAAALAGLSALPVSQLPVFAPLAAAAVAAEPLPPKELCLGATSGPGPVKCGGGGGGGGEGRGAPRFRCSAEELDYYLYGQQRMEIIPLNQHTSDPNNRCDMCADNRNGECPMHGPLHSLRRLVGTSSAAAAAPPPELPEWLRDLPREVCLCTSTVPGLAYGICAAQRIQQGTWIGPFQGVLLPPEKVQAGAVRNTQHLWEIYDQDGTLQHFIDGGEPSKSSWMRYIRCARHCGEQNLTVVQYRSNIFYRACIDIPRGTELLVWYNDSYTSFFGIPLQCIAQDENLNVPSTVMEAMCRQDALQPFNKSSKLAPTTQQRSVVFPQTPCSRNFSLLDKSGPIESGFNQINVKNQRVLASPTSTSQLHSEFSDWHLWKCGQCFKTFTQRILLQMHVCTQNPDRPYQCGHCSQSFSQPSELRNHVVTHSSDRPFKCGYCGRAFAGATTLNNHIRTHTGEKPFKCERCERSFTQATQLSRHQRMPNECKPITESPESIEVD

COc1cc(OC)cc(-c2noc(N3CCN(C)C4(CCN(c5ccnc(C)c5)CC4)C3)n2)c1 [MRK-740]
∆Tm, Average (n=3) (PRDM9 [1]; [4]): -0.02041 ⁰C | ∆Tm, replicates (PRDM9 [1]; [4]): 0.1071 ⁰C and -0.1796 ⁰C and 0.01126 ⁰C | ∆Tm, Average (n=3) (PRDM9 [1]; [5]): 0.008307 ⁰C | ∆Tm, replicates (PRDM9 [1]; [5]): 0.03434 ⁰C and -0.02437 ⁰C and 0.01495 ⁰C | ∆Tm, Average (n=3) (PRDM9 [1]; [6]): 0.01061 ⁰C | ∆Tm, replicates (PRDM9 [1]; [6]): 0.0928 ⁰C and -0.07107 ⁰C and 0.01011 ⁰C | ∆Tm, Average (n=3) (PRDM9 [1]; [7]): 0.1496 ⁰C | ∆Tm, replicates (PRDM9 [1]; [7]): 0.1732 ⁰C and 0.04052 ⁰C and 0.2352 ⁰C | ∆Tm, Average (n=3) (PRDM9 [1]; [8]): 0.04508 ⁰C | ∆Tm, replicates (PRDM9 [1]; [8]): 0.1528 ⁰C and -0.2157 ⁰C and 0.1982 ⁰C | ∆Tm, Average (n=3) (PRDM9 [1]; [9]): 0.2255 ⁰C | ∆Tm, replicates (PRDM9 [1]; [9]): 0.2233 ⁰C and 0.03455 ⁰C and 0.4187 ⁰C | ∆Tm, Average (n=3) (PRDM9 [1]; [10]): -0.08242 ⁰C | ∆Tm, replicates (PRDM9 [1]; [10]): -0.00371 ⁰C and -0.4167 ⁰C and 0.1731 ⁰C | ∆Tm, Average (n=3) (PRDM9 [1]; [11]): 0.4191 ⁰C | ∆Tm, replicates (PRDM9 [1]; [11]): 0.4623 ⁰C and 0.3242 ⁰C and 0.4707 ⁰C | ∆Tm, Average (n=3) (PRDM9 [1]; [12]): -0.01426 ⁰C | ∆Tm, replicates (PRDM9 [1]; [12]): 0.02232 ⁰C and -0.1544 ⁰C and 0.08926 ⁰C | ∆Tm, Average (n=3) (PRDM9 [1]; [13]): 0.7764 ⁰C | ∆Tm, replicates (PRDM9 [1]; [13]): 0.7056 ⁰C and 0.7972 ⁰C and 0.8264 ⁰C | ∆Tm, Average (n=3) (PRDM9 [1]; [14]): 0.1037 ⁰C | ∆Tm, replicates (PRDM9 [1]; [14]): 0.226 ⁰C and -0.09012 ⁰C and 0.1752 ⁰C | ∆Tm, Average (n=3) (PRDM9 [1]; [15]): 1.337 ⁰C | ∆Tm, replicates (PRDM9 [1]; [15]): 1.344 ⁰C and 1.221 ⁰C and 1.444 ⁰C | ∆Tm, Average (n=3) (PRDM9 [1]; [16]): -0.1063 ⁰C | ∆Tm, replicates (PRDM9 [1]; [16]): -0.01797 ⁰C and -0.3914 ⁰C and 0.09041 ⁰C | ∆Tm, Average (n=3) (PRDM9 [1]; [17]): 1.956 ⁰C | ∆Tm, replicates (PRDM9 [1]; [17]): 2.017 ⁰C and 1.819 ⁰C and 2.032 ⁰C | ∆Tm, Average (n=3) (PRDM9 [1]; [18]): 0.1387 ⁰C | ∆Tm, replicates (PRDM9 [1]; [18]): 0.3126 ⁰C and 0.00612 ⁰C and 0.09739 ⁰C | ∆Tm, Average (n=3) (PRDM9 [1]; [19]): 2.652 ⁰C | ∆Tm, replicates (PRDM9 [1]; [19]): 2.731 ⁰C and 2.527 ⁰C and 2.698 ⁰C | ∆Tm, Average (n=3) (PRDM9 [1]; [20]): 0.1127 ⁰C | ∆Tm, replicates (PRDM9 [1]; [20]): 0.2122 ⁰C and -0.02556 ⁰C and 0.1514 ⁰C | ∆Tm, Average (n=3) (PRDM9 [1]; [21]): 3.593 ⁰C | ∆Tm, replicates (PRDM9 [1]; [21]): 3.459 ⁰C and 3.608 ⁰C and 3.713 ⁰C | ∆Tm, Average (n=3) (PRDM9 [1]; [22]): 0.3345 ⁰C | ∆Tm, replicates (PRDM9 [1]; [22]): 0.254 ⁰C and 0.2924 ⁰C and 0.4572 ⁰C | ∆Tm, Average (n=3) (PRDM9 [1]; [23]): 4.481 ⁰C | ∆Tm, replicates (PRDM9 [1]; [23]): 4.418 ⁰C and 4.4008 ⁰C and 4.624 ⁰C | ∆Tm, Average (n=3) (PRDM9 [1]; [24]): 0.7417 ⁰C | ∆Tm, replicates (PRDM9 [1]; [24]): 0.7489 ⁰C and 0.7435 ⁰C and 0.7328 ⁰C | ∆Tm, Average (n=3) (PRDM9 [1]; [25]): 5.104 ⁰C | ∆Tm, replicates (PRDM9 [1]; [25]): 5.051 ⁰C and 5.067 ⁰C and 5.196 ⁰C | ∆Tm, Average (n=3) (PRDM9 [1]; [26]): 1.354 ⁰C | ∆Tm, replicates (PRDM9 [1]; [26]): 1.288 ⁰C and 1.351 ⁰C and 1.422 ⁰C | ∆Tm, Average (n=3) (PRDM9 [1]; [27]): 5.9348 ⁰C | ∆Tm, replicates (PRDM9 [1]; [27]): 5.8495 ⁰C and 5.999 ⁰C and 5.956 ⁰C | ∆ Tm (°C), DSF (PRDM12): -0.9 °C | ∆ Tm (°C), DSF (PRDM6): -0.633 °C | H3K4me3/endogenousH3 - western blot (PRDM9 [2]; 0.256 µM): 93.518 % control and 101.99 % control and 96.0071 % control | H3K4me3/endogenousH3 - western blot (PRDM9 [2]; 0.64 µM): 97.4527 % control and 97.7629 % control and 94.1624 % control | H3K4me3/endogenousH3 - western blot (PRDM9 [2]; 1.6 µM): 94.826 % control and 91.8208 % control and 93.3575 % control | H3K4me3/endogenousH3 - western blot (PRDM9 [2]; 4 µM): 91.0956 % control and 84.7178 % control and 90.9069 % control | H3K4me3/endogenousH3 - western blot (PRDM9 [2]; 10 µM): 88.6856 % control and 79.3861 % control and 84.4562 % control | H3K4me3/GFP - western blot (PRDM9 [3]; 0.256 µM): 72.3313 % control and 76.4161 % control | H3K4me3/GFP - western blot (PRDM9 [3]; 0.64 µM): 45.8788 % control and 51.2576 % control | H3K4me3/GFP - western blot (PRDM9 [3]; 1.6 µM): 25.9658 % control and 41.0483 % control | H3K4me3/GFP - western blot (PRDM9 [3]; 4 µM): 12.0678 % control and 16.7081 % control | H3K4me3/GFP - western blot (PRDM9 [3]; 10 µM): 8.819 % control and 7.277 % control | Inhibition of H3K4 methylation in MCF7 cells, compared with HEK293T (in words) (PRDM9 [3]; 20 h): equipotent inhibitor of H3K4 methylation
